Experiment: method code SF-HPLC, from DOI: 10.1002/jps.2600810814, PMID: 1403725

| SMILES | logP |
| --- | --- |
| CCCCN(CCC)N=O | 2.13 |
| CCN(CC)N=O | 0.61 |
| CN(N=O)C(C)(C)C | 0.86 |
| CCCCCN(CCCCC)N=O | 3.91 |
| CCCCN(CCCC)N=O | 2.73 |
| CC(C)N(N=O)C(C)C | 1.48 |
| CCCCN(CC)N=O | 1.67 |
| CCN(N=O)C(C)C | 1 |
| CCCN(CCC)N=O | 1.61 |
| CCCCN(C)N=O | 1.12 |
| CCCN(C)N=O | 0.61 |
| CC(C)CN(CC(C)C)N=O | 2.39 |
| CN(C)N=O | -0.38 |
| CCN(C)N=O | 0.08 |
